Assays:
[1] = system: Bacterial strains identified in Example 5; assay: Antibiotic sensitivity by diffusion disk test of strains cultured from each subject; assay type: cell-based
Procedure: (§1) The disclosure is based, in part, on the recognition that certain L-form bacteria are sensitive to (e.g., not resistant to treatment with) specific antibiotic agents. In some embodiments, resistance to antibiotic agents is tested by a diffusion tab (diffusion disk) test, for example as described in Reller et al. (2009) Clinical Infectious Diseases, 49(11): 1749-1755. However, the skilled artisan recognizes that additional methods of antibiotic sensitivity testing may also be used.
(§2) Bacterial strains identified in Example 5 were tested for antibiotic sensitivity by a diffusion disk test. […] Resistance to Oxacillin was also observed in the M. maritypicum samples.

M. maritypicum = assay: Antibiotic sensitivity by diffusion disk test, M. maritypicum; assay type: cell-based, Microbacterium maritypicum
Procedure: as §1, §2

[2] = strains cultured from subject 1545
[3] = strains cultured from subject 1642
[4] = strains cultured from subject 3016
[5] = strains cultured from subject 1538
[6] = strains cultured from subject 1609
[7] = strains cultured from subject 1619
[8] = strains cultured from subject 1636
[9] = strains cultured from subject 1842
[10] = strains cultured from subject 3025
[11] = strains cultured from subject 3164
[12] = strains cultured from subject 1985
[13] = strains cultured from subject 1905
[14] = strains cultured from subject 1644

For Sulfa-Trimeth, the “Resistance?” value [1, 2] was “Sulfa-”, the “Resistance?” value [1, 3] was “Sulfa-Trimeth,” and the “Resistance?” value [1, 4] was “Sulfa-Trimeth,”.
C[C@@H](O)[C@H]1C(=O)N2C(C(=O)O)=C(S[C@@H]3CN[C@H](C(=O)N(C)C)C3)[C@H](C)[C@H]12 [Meropenem] was tested, and the “Most Effective IV Antibiotic” value [1, 5] was “Meropenem”, the “Most Effective IV Antibiotic” value [1, 6] was “Meropenem” and the “Most Effective IV Antibiotic” value [1, 7] was “Meropenem”. The “Most Effective IV Antibiotic” value [1, 8] was “Meropenem”, the “Most Effective IV Antibiotic” value [1, 9] was “Meropenem” and the “Most Effective IV Antibiotic” value [1, 10] was “Meropenem”. The “Most Effective IV Antibiotic” value ([1]; strains cultured from subject 3104) was “Meropenem” and the “Most Effective IV Antibiotic” value [1, 11] was “Meropenem”.
Rifapin was tested, and the “Most Effective Oral Antibiotic” value [1, 12] was “Rifapin”.
For Amoxiclav, the “Most Effective Oral Antibiotic” value [1, 5] was “Amoxiclav”, the “Resistance?” value [1, 3] was “Amoxiclav” and the “Most Effective Oral Antibiotic” value ([1]; strains cultured from subject 1888) was “Amoxiclav”. For the same compound, the “Most Effective Oral Antibiotic” value [1, 13] was “Amoxiclav,”, the “Most Effective Oral Antibiotic” value [1, 4] was “Amoxiclav” and the “Most Effective Oral Antibiotic” value [1, 10] was “Amoxiclav”.
In the case of Penicillin, the “Most Effective Oral Antibiotic” value [1, 13] is reported as “Penicillin” and the “Resistance?” value [1, 4] is reported as “Penicillin”.
With CO/N=C(\C(=O)N[C@@H]1C(=O)N2C(C(=O)O)=C(COC(N)=O)CS[C@H]12)c1ccco1 [Cefuroxime] the “Resistance?” value [1, 6] was “Cefuroxime”, the “Resistance?” value [1, 3] was “Cefuroxime” and the “Most Effective Oral Antibiotic” value [1, 14] was “Cefuroxime”. For the same compound, the “Resistance?” value [1, 4] was “Cefuroxime”.
For Cc1onc(-c2ccccc2)c1C(=O)N[C@@H]1C(=O)N2[C@@H]1SC(C)(C)[C@@H]2C(=O)O [Oxacillin], the “Resistance?” value [1, 2] was “Oxacillin”, the “Resistance?” value [1, 6] was “Oxaillin” and the “Resistance?” value [1, 7] was “Oxacillin”. The “Resistance?” value [1, 8] was “Oxacillin”, the “Resistance?” value [1, 3] was “Oxacillin” and the “Resistance?” value [1, 14] was “Oxacillin”. The “Resistance?” value [1, 9] was “Oxacillin”, the “Resistance?” value [1, 4] was “Oxacilin” and the “Resistance?” value [1, 10] was “Oxacillin”. For the same compound, the “resistance observed in the M. maritypicum samples” value (M. maritypicum; M. maritypicum samples) was “Resistance”.
With Cc1ncc([N+](=O)[O-])n1CCO [Metronidazole] the “Resistance?” value [1, 5] was “Metronidazole”, the “Resistance?” value [1, 2] was “Metronidazile,” and the “Resistance?” value [1, 6] was “Metronidazole,”. The “Resistance?” value [1, 7] was “Metronidazole,”, the “Resistance?” value [1, 8] was “Metronidazole,” and the “Resistance?” value [1, 3] was “Metronidazole,”. The “Resistance?” value [1, 14] was “Metronidazole,”, the “Resistance?” value ([1]; strains cultured from subject 1661) was “Metronidazole,” and the “Resistance?” value [1, 9] was “Metronidazole,”. The “Resistance?” value [1, 12] was “Metronidazole”, the “Resistance?” value [1, 4] was “Metronidazole,” and the “Resistance?” value [1, 11] was “Metronidazole”. For the same compound, the “resistance observed for M. maritypicum” value (M. maritypicum; in the majority of samples) was “resistance”.
